# Patent US20100292231A1, “Indazole Compounds for Treating Inflammatory Disorders, Demyelinating Disorders and Cancers” (priority 2007, published 2010)
# pEC50: −log10 of the molar value. Where two headings read alike, the source gives them in different places.
# Experiments:
# Assay in all cases: SelectScreen kinase specificity survey
# Assay type in all cases: biochemical
# ACVR1B (ALK4) = target: T1, ACVR1B (ALK4) (Homo sapiens, UniProt P36896); settings: estimated, abridged dose response curve, read-out: Kinase inhibitory activity EC50
# T1 construct: purchased Invitrogen, Inc. (SelectScreen platform)
# In short: (§1)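 First, uninhibited controls recorded the baseline substrate phosphorylation with 100 micromolar ATP. Next, putative inhibitor was added at 5 graded levels. Finally, the dose-response data were fitted to a four-parameter Hill equation to estimate EC50.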
# AURKB (Aurora B) = target: T2, AURKB (Aurora B) (Homo sapiens, UniProt Q96GD4); settings: estimated, abridged dose response curve, read-out: Kinase inhibitory activity EC50
# T2 construct: purchased Invitrogen, Inc. (SelectScreen service)
# In short: as §1
# CDC42 BPB (MRCKB) = target: T3, CDC42 BPB (MRCKB) (Homo sapiens, UniProt Q9Y5S2); settings: estimated, abridged dose response curve, read-out: Kinase inhibitory activity EC50
# T3 construct: purchased Invitrogen (SelectScreen platform)
# In short: as §1
# CSNK2A1 (CK2 alpha 1) = target: T4, CSNK2A1 (CK2 alpha 1) (Homo sapiens, UniProt P68400); settings: estimated, abridged dose response curve, read-out: Kinase inhibitory activity EC50
# T4 construct: purchased Invitrogen, Inc. (SelectScreen service)
# T4 sequence (P68400 whole entry): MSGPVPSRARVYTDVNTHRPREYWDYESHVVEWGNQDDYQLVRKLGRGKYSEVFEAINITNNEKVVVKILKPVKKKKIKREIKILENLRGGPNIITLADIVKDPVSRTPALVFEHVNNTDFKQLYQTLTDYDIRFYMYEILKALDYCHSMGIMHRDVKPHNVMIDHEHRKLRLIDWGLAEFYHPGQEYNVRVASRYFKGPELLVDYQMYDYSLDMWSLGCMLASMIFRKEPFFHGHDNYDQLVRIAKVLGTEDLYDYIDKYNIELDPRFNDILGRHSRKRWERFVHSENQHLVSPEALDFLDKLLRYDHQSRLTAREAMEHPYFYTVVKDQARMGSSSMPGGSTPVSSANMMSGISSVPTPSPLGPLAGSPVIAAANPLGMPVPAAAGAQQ
# In short: as §1
# DCAMKL2 (DCK2) = target: T5, DCAMKL2 (DCK2) (Homo sapiens, UniProt Q8N568); settings: estimated, abridged dose response curve, read-out: Kinase inhibitory activity EC50
# T5 construct: purchased Invitrogen, Inc. (SelectScreen platform)
# In short: as §1
# DYRK4 = target: T6, DYRK4 (Homo sapiens, UniProt Q9NR20)
# T6 construct: purchased Invitrogen (SelectScreen platform)
# In short: as §1
# EGFR (ErbB1) L858R = target: T7, EGFR (ErbB1) L858R (Homo sapiens, UniProt P00533, L858R); settings: estimated, abridged dose response curve, read-out: Kinase inhibitory activity EC50
# T7 construct: purchased Invitrogen (SelectScreen service)
# In short: as §1
# EGFR (ErbB1) T790M = target: T8, EGFR (ErbB1) T790M (Homo sapiens, UniProt P00533, T790M); settings: estimated, abridged dose response curve, read-out: Kinase inhibitory activity EC50
# T8 construct: purchased Invitrogen (SelectScreen service)
# T8 sequence (P00533 25-1210 T790M): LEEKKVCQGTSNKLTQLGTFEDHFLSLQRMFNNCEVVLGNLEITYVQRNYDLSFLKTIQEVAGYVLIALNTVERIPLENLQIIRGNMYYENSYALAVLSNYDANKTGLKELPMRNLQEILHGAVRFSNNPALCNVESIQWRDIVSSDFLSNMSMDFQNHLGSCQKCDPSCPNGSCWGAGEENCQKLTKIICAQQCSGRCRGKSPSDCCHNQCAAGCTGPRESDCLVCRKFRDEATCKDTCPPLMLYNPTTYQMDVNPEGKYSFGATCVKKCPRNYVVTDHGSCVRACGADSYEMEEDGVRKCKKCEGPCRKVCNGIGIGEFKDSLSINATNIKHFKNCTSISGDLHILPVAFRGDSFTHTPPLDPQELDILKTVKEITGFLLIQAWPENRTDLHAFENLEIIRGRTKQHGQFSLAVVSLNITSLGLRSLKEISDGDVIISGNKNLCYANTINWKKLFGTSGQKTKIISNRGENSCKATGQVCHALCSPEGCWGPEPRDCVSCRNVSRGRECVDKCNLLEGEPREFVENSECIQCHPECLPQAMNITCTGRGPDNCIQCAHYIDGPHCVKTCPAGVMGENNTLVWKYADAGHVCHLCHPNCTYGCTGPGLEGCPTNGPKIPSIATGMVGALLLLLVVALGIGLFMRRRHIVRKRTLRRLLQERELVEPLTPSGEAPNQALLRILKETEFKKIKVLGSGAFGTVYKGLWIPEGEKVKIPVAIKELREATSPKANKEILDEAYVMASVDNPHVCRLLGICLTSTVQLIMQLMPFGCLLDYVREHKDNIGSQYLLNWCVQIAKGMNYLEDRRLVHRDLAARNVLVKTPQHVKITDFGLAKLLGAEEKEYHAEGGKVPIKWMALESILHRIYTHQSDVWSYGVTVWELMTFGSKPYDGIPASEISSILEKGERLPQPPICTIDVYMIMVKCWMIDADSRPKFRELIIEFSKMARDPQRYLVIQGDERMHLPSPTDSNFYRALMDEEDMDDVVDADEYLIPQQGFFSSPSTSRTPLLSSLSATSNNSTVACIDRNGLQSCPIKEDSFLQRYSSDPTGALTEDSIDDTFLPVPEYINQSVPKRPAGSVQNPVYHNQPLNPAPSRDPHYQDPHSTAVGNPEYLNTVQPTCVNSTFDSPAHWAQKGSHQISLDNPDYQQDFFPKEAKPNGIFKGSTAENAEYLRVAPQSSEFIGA
# EPHB3 = target: T9, EPHB3 (Homo sapiens, UniProt P54753); settings: estimated, abridged dose response curve, read-out: Kinase inhibitory activity EC50
# T9 construct: purchased Invitrogen (SelectScreen service)
# T9 sequence (P54753 34-998): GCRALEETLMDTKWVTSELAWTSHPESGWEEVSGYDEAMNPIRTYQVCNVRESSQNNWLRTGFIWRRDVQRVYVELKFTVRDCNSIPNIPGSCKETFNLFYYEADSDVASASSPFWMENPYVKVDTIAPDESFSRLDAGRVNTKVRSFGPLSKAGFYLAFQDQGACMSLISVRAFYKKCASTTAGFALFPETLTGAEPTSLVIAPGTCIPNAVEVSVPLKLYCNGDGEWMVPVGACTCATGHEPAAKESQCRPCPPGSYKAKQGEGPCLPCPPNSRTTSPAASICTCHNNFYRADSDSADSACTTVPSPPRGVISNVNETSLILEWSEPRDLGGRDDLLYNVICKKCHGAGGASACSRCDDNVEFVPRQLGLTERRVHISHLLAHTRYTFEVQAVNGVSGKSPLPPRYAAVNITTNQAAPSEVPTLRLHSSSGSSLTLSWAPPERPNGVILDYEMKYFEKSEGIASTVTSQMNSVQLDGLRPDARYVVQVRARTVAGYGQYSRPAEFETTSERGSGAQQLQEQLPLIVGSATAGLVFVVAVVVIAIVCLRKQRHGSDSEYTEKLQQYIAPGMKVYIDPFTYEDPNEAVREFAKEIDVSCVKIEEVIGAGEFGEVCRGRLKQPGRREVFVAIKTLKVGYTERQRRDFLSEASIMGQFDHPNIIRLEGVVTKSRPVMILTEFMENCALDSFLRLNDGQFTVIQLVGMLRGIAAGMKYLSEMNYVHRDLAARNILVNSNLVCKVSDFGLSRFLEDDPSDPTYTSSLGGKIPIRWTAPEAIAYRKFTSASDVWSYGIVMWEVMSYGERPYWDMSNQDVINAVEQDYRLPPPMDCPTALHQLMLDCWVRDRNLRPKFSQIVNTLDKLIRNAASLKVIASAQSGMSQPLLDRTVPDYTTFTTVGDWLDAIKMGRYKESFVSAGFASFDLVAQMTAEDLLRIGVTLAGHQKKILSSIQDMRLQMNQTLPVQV
# In short: as §1
# FRK (PTK5) = target: T10, FRK (PTK5) (Homo sapiens, UniProt P42685); settings: estimated, abridged dose response curve, read-out: Kinase inhibitory activity EC50
# T10 construct: purchased Invitrogen (SelectScreen)
# T10 sequence (P42685 whole entry): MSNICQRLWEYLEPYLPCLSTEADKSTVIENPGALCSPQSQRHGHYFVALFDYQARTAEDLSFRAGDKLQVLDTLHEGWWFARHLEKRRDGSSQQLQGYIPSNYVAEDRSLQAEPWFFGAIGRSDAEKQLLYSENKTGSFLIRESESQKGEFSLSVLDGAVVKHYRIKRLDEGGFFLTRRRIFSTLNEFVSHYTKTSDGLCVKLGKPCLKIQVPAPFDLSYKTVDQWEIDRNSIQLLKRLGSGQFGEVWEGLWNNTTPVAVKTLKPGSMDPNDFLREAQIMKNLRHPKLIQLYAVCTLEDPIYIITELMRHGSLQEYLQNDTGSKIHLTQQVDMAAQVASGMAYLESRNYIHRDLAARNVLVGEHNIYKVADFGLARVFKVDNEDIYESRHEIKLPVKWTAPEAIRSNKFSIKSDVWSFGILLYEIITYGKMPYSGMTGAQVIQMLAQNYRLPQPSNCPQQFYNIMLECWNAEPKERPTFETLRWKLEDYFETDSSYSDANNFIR
# In short: as §1
# HCK = target: T11, HCK (Homo sapiens, UniProt P08631); settings: estimated, abridged dose response curve, read-out: Kinase inhibitory activity EC50
# T11 construct: purchased Invitrogen (SelectScreen)
# In short: as §1
# KIT = target: T12, KIT (Homo sapiens, UniProt P10721); settings: estimated, abridged dose response curve, read-out: Kinase inhibitory activity EC50
# T12 construct: purchased Invitrogen (SelectScreen platform)
# In short: as §1
# MAP3K8 (COT) = target: T13, MAP3K8 (COT) (Homo sapiens, UniProt P41279); settings: estimated, abridged dose response curve, read-out: Kinase inhibitory activity EC50
# T13 construct: purchased Invitrogen, Inc. (SelectScreen service)
# In short: as §1
# MAPK10 (JNK3) = target: T14, MAPK10 (JNK3) (Homo sapiens, UniProt P53779); settings: estimated, abridged dose response curve, read-out: Kinase inhibitory activity EC50
# T14 construct: purchased Invitrogen (SelectScreen platform)
# In short: as §1
# MAPK14 (p38 alpha) = target: T15, MAPK14 (p38 alpha) (Homo sapiens, UniProt Q16539); settings: estimated, abridged dose response curve, read-out: Kinase inhibitory activity EC50
# T15 construct: purchased Invitrogen, Inc. (SelectScreen service)
# MST1R (RON) = target: T16, MST1R (RON) (Homo sapiens, UniProt Q04912); settings: estimated, abridged dose response curve, read-out: Kinase inhibitory activity EC50
# T16 construct: purchased Invitrogen (SelectScreen platform)
# T16 sequence (Q04912 25-1400): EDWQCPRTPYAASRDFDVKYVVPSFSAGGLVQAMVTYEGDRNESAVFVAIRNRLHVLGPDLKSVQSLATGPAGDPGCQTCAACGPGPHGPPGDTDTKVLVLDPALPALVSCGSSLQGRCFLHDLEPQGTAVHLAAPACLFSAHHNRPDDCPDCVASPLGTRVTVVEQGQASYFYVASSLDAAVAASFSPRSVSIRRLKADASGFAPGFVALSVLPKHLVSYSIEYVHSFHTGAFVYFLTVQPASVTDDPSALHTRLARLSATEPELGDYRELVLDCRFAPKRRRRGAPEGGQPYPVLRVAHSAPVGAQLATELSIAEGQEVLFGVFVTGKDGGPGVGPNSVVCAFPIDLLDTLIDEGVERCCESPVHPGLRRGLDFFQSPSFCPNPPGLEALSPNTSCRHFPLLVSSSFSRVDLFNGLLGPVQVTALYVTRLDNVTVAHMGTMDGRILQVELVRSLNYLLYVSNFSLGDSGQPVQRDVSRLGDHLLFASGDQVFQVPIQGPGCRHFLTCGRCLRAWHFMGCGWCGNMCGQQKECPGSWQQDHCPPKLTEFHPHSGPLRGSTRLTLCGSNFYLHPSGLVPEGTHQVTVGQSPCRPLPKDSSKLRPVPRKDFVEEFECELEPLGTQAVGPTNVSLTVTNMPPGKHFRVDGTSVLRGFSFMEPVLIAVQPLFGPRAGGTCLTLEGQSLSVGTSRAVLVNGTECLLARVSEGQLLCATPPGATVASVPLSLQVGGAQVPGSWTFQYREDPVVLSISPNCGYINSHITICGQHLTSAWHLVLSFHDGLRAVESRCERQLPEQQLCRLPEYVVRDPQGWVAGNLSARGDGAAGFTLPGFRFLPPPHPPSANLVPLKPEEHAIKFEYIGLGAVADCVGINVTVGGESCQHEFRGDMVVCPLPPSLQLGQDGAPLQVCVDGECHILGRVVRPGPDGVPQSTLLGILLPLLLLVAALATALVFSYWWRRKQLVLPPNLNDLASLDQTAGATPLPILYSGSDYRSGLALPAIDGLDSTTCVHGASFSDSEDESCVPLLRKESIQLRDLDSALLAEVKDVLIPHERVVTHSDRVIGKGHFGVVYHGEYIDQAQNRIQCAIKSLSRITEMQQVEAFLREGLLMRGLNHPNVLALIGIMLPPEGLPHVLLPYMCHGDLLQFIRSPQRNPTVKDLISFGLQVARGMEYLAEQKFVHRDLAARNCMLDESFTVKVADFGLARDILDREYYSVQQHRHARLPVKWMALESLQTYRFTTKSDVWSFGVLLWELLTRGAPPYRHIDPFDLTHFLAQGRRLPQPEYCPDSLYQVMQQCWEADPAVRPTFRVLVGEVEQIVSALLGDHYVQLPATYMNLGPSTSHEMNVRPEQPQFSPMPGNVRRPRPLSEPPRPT
# In short: as §1
# NTRK3 (TRKC) = target: T17, NTRK3 (TRKC) (Homo sapiens, UniProt Q16288)
# T17 construct: purchased Invitrogen, Inc. (SelectScreen platform)
# In short: as §1
# PDGFRA D842V = target: T18, PDGFRA D842V (Homo sapiens, UniProt P16234, D842V); settings: estimated, abridged dose response curve, read-out: Kinase inhibitory activity EC50
# T18 construct: purchased Invitrogen (SelectScreen platform)
# In short: as §1
# PDGFRB (PDGFR beta) = target: T19, PDGFRB (PDGFR beta) (Homo sapiens, UniProt P09619); settings: estimated, abridged dose response curve, read-out: Kinase inhibitory activity EC50
# T19 construct: purchased Invitrogen (SelectScreen platform)
# In short: as §1
# PKN1 (PRK1) = target: T20, PKN1 (PRK1) (Homo sapiens, UniProt Q16512); settings: estimated, abridged dose response curve, read-out: Kinase inhibitory activity EC50
# T20 construct: purchased Invitrogen, Inc. (SelectScreen platform)
# In short: as §1
# PLK3 = target: T21, PLK3 (Homo sapiens, UniProt Q9H4B4); settings: estimated, abridged dose response curve, read-out: Kinase inhibitory activity EC50
# T21 construct: purchased Invitrogen, Inc. (SelectScreen service)
# In short: as §1
# PRKCH (PKC eta) = target: T22, PRKCH (PKC eta) (Homo sapiens, UniProt P24723); settings: estimated, abridged dose response curve, read-out: Kinase inhibitory activity EC50
# T22 construct: purchased Invitrogen, Inc. (SelectScreen platform)
# In short: as §1
# PRKCZ (PKC zeta) = target: T23, PRKCZ (PKC zeta) (Homo sapiens, UniProt Q05513); settings: estimated, abridged dose response curve, read-out: Kinase inhibitory activity EC50
# T23 construct: purchased Invitrogen, Inc. (SelectScreen platform)
# T23 sequence (Q05513 whole entry): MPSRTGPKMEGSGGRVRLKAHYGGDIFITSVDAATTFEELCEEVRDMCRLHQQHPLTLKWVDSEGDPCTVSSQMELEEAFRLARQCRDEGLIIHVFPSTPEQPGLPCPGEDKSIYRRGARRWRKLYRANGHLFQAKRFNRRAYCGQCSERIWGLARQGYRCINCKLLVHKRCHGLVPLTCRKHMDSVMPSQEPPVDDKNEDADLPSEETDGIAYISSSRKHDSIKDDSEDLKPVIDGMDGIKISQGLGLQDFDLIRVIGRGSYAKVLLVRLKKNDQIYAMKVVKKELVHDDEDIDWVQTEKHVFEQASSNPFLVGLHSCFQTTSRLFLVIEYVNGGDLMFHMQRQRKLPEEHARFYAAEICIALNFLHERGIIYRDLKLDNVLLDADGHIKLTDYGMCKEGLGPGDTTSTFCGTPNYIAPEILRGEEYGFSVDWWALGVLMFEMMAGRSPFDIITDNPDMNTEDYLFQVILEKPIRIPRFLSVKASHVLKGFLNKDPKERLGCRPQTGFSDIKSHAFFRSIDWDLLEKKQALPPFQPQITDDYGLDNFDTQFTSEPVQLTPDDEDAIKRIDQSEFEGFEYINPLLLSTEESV
# In short: as §1
# SRC = target: T24, SRC (Homo sapiens, UniProt P12931); settings: estimated, abridged dose response curve, read-out: Kinase inhibitory activity EC50
# T24 construct: purchased Invitrogen (SelectScreen)
# In short: as §1
# TEK (Tie2) = target: T25, TEK (Tie2) (Homo sapiens, UniProt Q02763); settings: estimated, abridged dose response curve, read-out: Kinase inhibitory activity EC50
# T25 construct: purchased Invitrogen (SelectScreen)
# In short: as §1
# YES1 (YES) = target: T26, YES1 (YES) (Homo sapiens, UniProt P07947); settings: estimated, abridged dose response curve, read-out: Kinase inhibitory activity EC50
# T26 construct: purchased Invitrogen (SelectScreen)
# In short: as §1
Structure (SMILES),pEC50 (ACVR1B (ALK4)),pEC50 (AURKB (Aurora B)),pEC50 (CDC42 BPB (MRCKB)),pEC50 (CSNK2A1 (CK2 alpha 1)),pEC50 (DCAMKL2 (DCK2)),pEC50 (EGFR (ErbB1) L858R),pEC50 (EGFR (ErbB1) T790M),pEC50 (EPHB3),pEC50 (FRK (PTK5)),pEC50 (HCK),pEC50 (KIT),pEC50 (MAP3K8 (COT)),pEC50 (MAPK10 (JNK3)),pEC50 (MAPK14 (p38 alpha)),pEC50 (MST1R (RON)),pEC50 (PDGFRA D842V),pEC50 (PDGFRB (PDGFR beta)),pEC50 (PKN1 (PRK1)),pEC50 (PLK3),pEC50 (PRKCH (PKC eta)),also measured
CN(C)CCCNc1ccc2ncn3c4ccc5[nH]ncc5c4c(=O)c1c23 [Compound (IV)],< 5.30,< 5.30,5.44,< 5.30,< 5.30,< 5.30,5.40,< 5.30,6.41,5.64,5.96,< 5.30,5.55,5.42,< 5.30,6.43,6.56,5.86,< 5.30,5.67,"pEC50 (DYRK4; DYRK4, estimated, abridged dose response curve, read-out: Kinase inhibitory activity EC50): < 5.30; pEC50 (NTRK3 (TRKC); NTRK3 (TRKC), estimated, abridged dose response curve, read-out: Kinase inhibitory activity EC50): 6.62; pEC50 (PRKCZ (PKC zeta)): < 5.30; pEC50 (SRC): 6.36; pEC50 (TEK (Tie2)): < 5.30; pEC50 (YES1 (YES)): 5.80"
"CCN(CC)CCNc1ccc2ncn3c4ccc(O)cc4c(=O)c1c23 [Symadex, 5-(2-(diethylamino)ethylamino)-8-hydroxy-6H-imidazo[4,5,1-de]acridin-6-one, reference compound]",< 5.30,< 5.30,< 5.30,< 5.30,< 5.30,< 5.30,5.54,< 5.30,5.68,5.40,5.65,5.33,< 5.30,5.53,< 5.30,5.98,5.75,5.32,< 5.30,< 5.30,pEC50 (DYRK4): < 5.30; pEC50 (NTRK3 (TRKC)): 5.43; pEC50 (PRKCZ (PKC zeta)): < 5.30; pEC50 (SRC): 5.36; pEC50 (TEK (Tie2)): < 5.30; pEC50 (YES1 (YES)): < 5.30
